Experimental data as given in publication PMC11729425 (ACS Pharmacology & Translational Science, 2024).

What was measured:
[1] = test system: sphingolipids in gastrocnemius muscle and brain; assay: Sphingolipid and deoxysphingolipid analysis in gastrocnemius muscle and brain of aged mice (20 weeks); type: in vivo, C57BL/6JRj mice; conditions: 1 mg/kg in the food
Procedure: Figure 4 1-deoxy-SL species accumulate in muscle and brain tissues during aging and contribute to cellular protein aggregation. (A,B) Heat map representing the abundance of sphingolipids in (A) gastrocnemius muscle and (B) brain with and without treatment with ALT-007 in mice (ALT-007 at 1 mg/kg; DMSO at equivalent volume for 20 weeks). N = 8 per group. Data are shown as log2 fold change. Adjusted P values are indicated as follows: *adjusted P < 0.05; **adjusted P < 0.01; ***adjusted P < 0.001. (C,D) Representative images and quantification of protein aggregates upon 1-deoxy-SA (C) and P053 treatment (D) in human primary IBM cells; both were administered at 4 μM for 24 h. N = 8 per group. (E) Analysis of 1-Deoxy-Spa and 1-DeoxyCer 24:1 levels in myoblasts from healthy and IBM patients. N = 3 per group. (C–E) Quantitative data are expressed as median with IQR and compared using the Mann–Whitney U test. All tests were 2 sided. *P < 0.05, **P < 0.01, ***P < 0.001.
Sphingolipid and deoxysphingolipid measurements were performed by liquid chromatography–tandem mass spectrometry (LC–MS/MS) analysis as described in previous studies.[12],[13],[28]−[30] […]
(§1) ESI source conditions were used as follows: dry gas temperature, 230 °C; nebulizer, 35 psi and flow rate of 14 L min^–1; sheath gas temperature, 400 °C and flow rate of 12 L min^–1; nozzle voltage, 500 V; and capillary voltage, 4000 V. Dynamic multiple reaction monitoring was used as the acquisition mode with a total cycle time of 500 ms. […] Raw LC–MS/MS data were processed applying Agilent Quantitative Analysis software (version B.07.00, MassHunter Agilent Technologies).
Absolute quantification was based on calibration curves and stable isotope-labeled internal standards to determine the response factor for each metabolite, with linearity assessed using 12-point range standard curves. […] Sphingolipid concentrations were reported and protein concentrations in protein pellets (measured by BCA, Thermo Fisher Scientific) were determined after metabolite extraction. […]

Aged C57BL/6J mice = assay: Rotarod test; type: in vivo, C57BL/6JRj mice; conditions: 1 mg/kg in the food, week 9
Procedure: The rotarod test assesses muscle strength, coordination, and endurance.[32] Mice were allowed to acclimate in the room for 30 min. […] Each mouse underwent three trials per day for three consecutive days. The latency at which the mouse either reached passive rotation or fell from the rotor was recorded. The results presented here focus on the latency of the best trial conducted on the second day.

[2] = test system: ceramide levels in the gastrocnemius muscle; assay: Ceramide levels in gastrocnemius muscle after 10 days of treatment; type: in vivo, mice; conditions: 4 mg/kg/d in the food
Procedure: (A) Schematic representation of the de novo sphingolipid synthesis pathway. (B) Chemical structures of myriocin (MYR) and ALT-007. (C) Heatmap analysis comparing the effects of treatments with the indicated concentrations of MYR and ALT-007 on lipid species in C2C12 cells. N = 3 per group. Data are shown as log2 fold change. (D) Body weight curves of mice treated with ALT-007 or vehicle (4 mg/kg/d for 10 days, in the food). (E) Mean food consumption measurement throughout the treatment. (F) Plasma levels of aspartate transaminase (AST), (G) alanine transaminase (ALT) and (H) creatine kinase (CK) after 10 days of treatment with ALT-007 at 4 mg/kg/day. (I) Ceramide levels measured in the gastrocnemius muscle after 10 days of treatment. N = 8 per group. Quantitative data are expressed as median with min to max values. *P < 0.05, **P < 0.01, ***P < 0.001. […]
as §1, with “Technologies). […]” for “Technologies).”

[3] = 10-day food admix tolerability in mice (body weight, food intake, plasma AST, ALT, CK); type: in vivo; conditions: 10 days
Procedure: (A) Schematic representation of the de novo sphingolipid synthesis pathway. (B) Chemical structures of myriocin (MYR) and ALT-007. (C) Heatmap analysis comparing the effects of treatments with the indicated concentrations of MYR and ALT-007 on lipid species in C2C12 cells. N = 3 per group. Data are shown as log2 fold change. (D) Body weight curves of mice treated with ALT-007 or vehicle (4 mg/kg/d for 10 days, in the food). (E) Mean food consumption measurement throughout the treatment. (F) Plasma levels of aspartate transaminase (AST), (G) alanine transaminase (ALT) and (H) creatine kinase (CK) after 10 days of treatment with ALT-007 at 4 mg/kg/day. (I) Ceramide levels measured in the gastrocnemius muscle after 10 days of treatment. N = 8 per group. Quantitative data are expressed as median with min to max values. *P < 0.05, **P < 0.01, ***P < 0.001. ANOVA test was used for multiple comparison, and the Mann–Whitney U test when comparing 2 groups. All tests were 2 sided. Abbreviation: SPT, serine palmitoyltransferase; CK, creatine kinase; MYR, Myriocin; ns, nonsignificant.
Plasma parameters were assessed using samples diluted two times (at a 1:1 ratio of plasma to diluent) with the DimensionXpand Plus system from Siemens Healthcare Diagnostics. The biochemical tests were conducted in accordance with the manufacturer’s instructions for each specific parameter. These parameters included transaminase AST (DF41A), transaminase ALT (DF143) and creatine kinase (11097640), all provided by Siemens Healthcare.

[4] = 4 mg/kg/d in the food, vs DMSO control mice

Question: What does the source list for COc1cc(C(=O)N2CC[C@H](NC(=O)c3ccccc3OC(F)(F)F)c3c2cnn3C(C)C)cnc1OC [ALT-007]?
Answer: 1-deoxy-SLs in the brain [1]: attenuated the age-related increase in 1-deoxy-SLs; total ceramides in the gastrocnemius [1]: lower levels of total ceramides; very long chain 1-deoxy-SLs (1-deoxyCer 22, 1-deoxyCer 24:1, N-C24:1-deoxysphinganine) in the gastrocnemius muscle [1]: attenuated; coordination measured by the rotarod test (Aged C57BL/6J mice): improved; ceramide levels in the gastrocnemius muscle [2]: effectively decreased ceramide levels with a stronger effect on very long-chain (VLC) species; body weight [3, 4]: no differences; food intake [3, 4]: no differences; hepatic toxicity by plasma transaminase (AST, ALT) levels ([3]; 4 mg/kg/day): neither hepatic nor muscle toxicity was identified; muscle toxicity by plasma creatine kinase (CK) levels ([3]; 4 mg/kg/day): neither hepatic nor muscle toxicity was identified
